# *: point of attachment. FITC = O=C1OC2(c3ccc(O)cc3Oc3cc(O)ccc32)c2ccc(NC(=S)*)cc21; AEEA = NCCOCCOCC(=O)O
# Columns and labels:
# [1] = system: U2OS cells; assay: Viability assay (crystal violet), U2OS; assay type: cell-based; conditions: 72 h treatment
# Protocol: U2OS, HCT116 and MDA-MB-231 cells were purchased from the ATCC and grown in Dulbecco modified Eagle's medium (DMEM; EuroClone, Milan, Italy; ECM0728L) supplemented with 10% Fetal Bovine Serum (FBS, ThermoFisher Scientific/Gibco, Waltham, MA, USA; 10270-106), 2 mM L-glutamine and antibiotics in a humidified incubator at 37°C with 5% CO2 and atmospheric O2 concentration. Cell lines were authenticated and tested to be mycoplasma-free.
# U2OS, HCT116, and MDA-MB-231 cells were seeded in 24-well plates at a density of 1 × 10^4, 20 × 10^3 and 12 × 10^3 for each well, respectively. After 24 h, cells were treated with the indicated peptides and incubated at 37°C for additional 72 h. Upon treatment completion, cell medium was removed, the wells were washed twice in phosphate-buffered saline (PBS) and fixed with 4% formaldehyde for 15 min at room temperature (RT). After washing, 500 μl of crystal violet staining solution (Sigma-Aldrich, St. Louis, MO, USA) was added to each well and incubated for 30 min at RT. Finally, the plates were rinsed twice with water, air-dried and cell pellets were dissolved in 400 μl of a 10% aqueous solution of acetic acid. In total, 200 μl of each sample was transferred to a 96-well plate, and the optical density was measured at 570 nm (OD570) with an ELISA reader (Thermo Scientific, Waltham, MA, USA). The average absorbance in each condition was used to calculate the viability expressed as a percentage of treated vs untreated conditions (CTR).
# [2] = system: γH2AX in U2OS cells; assay: Immunofluorescence of γH2AX (DNA damage); assay type: cell-based; conditions: 10 μM peptide, 24 h
# Protocol: To evaluate telomere-localized DNA damage, FISH assay with a telomeric probe was combined to IF staining of γH2AX. Cells were seeded on glass coverslips in a 6-well plate at a density of 1 × 10^5 cells/well. After 24 h of treatment with indicated peptides, cells were washed three times with PBS 1×, fixed with formaldehyde 4% in PBS for 2 min at RT and washed three times with PBS 1×. The fixation protocol was repeated twice and then the samples were dehydrated by sequential exposure to 70%, 90% and 100% EtOH and DNA was denatured by incubation at 80°C for 3 min in the presence of the telomere probe solution (10 mM of Tris pH 7.2, MgCl2 buffer, 70% of deionized formamide, […] of TelC-Cy3 telomeric probe (Panagene, Daejeon, Korea), 0.25% of blocking reagent). […] For quantitative analysis of γH2AX positive cells, at least 200 cells/condition were scored in triplicate. For Telomere-Induced Foci (TIFs) analysis, at least 25 γH2AX-positive cells on a single plane were scored. […] Fluorescence signals were recorded with Zeiss Laser Scanning Microscope 510 Meta (63× magnification) (Zeiss, Germany) and the experiment was analyzed with Adobe Photoshop CC 2019.
# [3] = system: G4; assay: CD experiments, G4-stabilizing properties of R7W conjugate versus parent; assay type: binding; conditions: CD experiments (Supplementary Figure S39)
# Excerpt: The buffer baseline was subtracted from each spectrum.
# [4] = system: HER2; assay: Real-time RT-PCR of HER2 expression; assay type: cell-based; conditions: U2OS, 10 μM peptide, 8, 16 and 24 h
# Protocol: (§1) U2OS cells were seeded on glass coverslips in a 6-well plate at a density of 2 × 10^5 cells/well and treated with the peptides for 8, 16, and 24 h. Total RNA was isolated from the cell lines using WizPrep™ Total RNA Mini Kit (Cell). The quality and the quantity of RNA extraction was assessed by evaluating the A280/A260 nm and A260/A230 nm absorbance ratio (Nanodrop 1000, Thermo Fisher Scientific). The mRNA Reverse Transcription (RT) was performed using the QuantiTect Reverse Transcription Kit (Qiagen). mRNA expression was evaluated by SYBR Green (Applied Biosystems) in the QuantStudio 6 Flex Detection system (ThermoFisher Scientific). Primer sequences are indicated in Supplementary Table S2.
# [5] = system: BCL-2; assay: Real-time RT-PCR of BCL-2 expression; assay type: cell-based; conditions: U2OS, 10 μM peptide, 8, 16 and 24 h
# Protocol: as §1
# [6] = biological target: T1, FITC-Myb397-415 (UniProt P11938 397-415); assay: microscale thermophoresis; 5 mM KH2PO4/K2HPO4, 20 mM KCl (c-MYC stock annealed in LiCl), pH 7.0; MST 25 C with 0.1% Tween, 5% DMSO, 20 nM labelled peptide, DNA titrated (stocks from 10 or 20 uM, mixed 1:1); ITC 25 C; conditions: tags: N-terminal FITC-O2Oc; C-terminal NH2; parallel G4
# T1 chain: {FITC-AEEA}-NHTGNSIRHRFRVYLSKRL-NH2
# [7] = biological target: T2, MybA412 (Saccharomyces cerevisiae, UniProt P11938 397-415, S412A); assay: isothermal titration calorimetry; 5 mM KH2PO4/K2HPO4, 20 mM KCl (c-MYC stock annealed in LiCl), pH 7.0; MST 25 C with 0.1% Tween, 5% DMSO, 20 nM labelled peptide, DNA titrated (stocks from 10 or 20 uM, mixed 1:1); ITC 25 C; conditions: tags: N-acetyl; C-terminal NH2; chain copies: 2; parallel G4
# T2 chain: NHTGNSIRHRFRVYLAKRL
# [8] = biological target: T3, Myb397-415 (UniProt P11938 397-415); assay: as above; conditions: tags: N-acetyl; C-terminal NH2; chain copies: 2; parallel G4
# T3 chain: NHTGNSIRHRFRVYLSKRL
# [9] = biological target: T4, MybA400 (UniProt P11938 397-415, G400A); assay: as above; conditions: tags: N-acetyl; C-terminal NH2; chain copies: 2; parallel G4
# T4 chain: NHTANSIRHRFRVYLSKRL
# [10] = biological target: T5, FITC-MybA400 (UniProt P11938 397-415, G400A); assay: MST; 20 mM K+; 5 mM KH2PO4/K2HPO4 pH 7.0, 20 mM KCl (LiCl for c-MYC stock), 25 C; MST with 0.1% Tween and 5% DMSO, 20 nM FITC-peptide; conditions: tags: N-terminal FITC; parallel G4
# T5 chain: {FITC-AEEA}-NHTANSIRHRFRVYLSKRL-NH2
molecule,measurement,setting,value
"RRRRRRRW-GG-NHTANSIRHRFRVYLSKRL [R7W-Myb^A400, Myb^A400 N-terminally conjugated to the cell-penetrating peptide R7W via a glycine–glycine spacer]","Inhibition of tumour cell growth, R7W-conjugated peptides",[1],essentially to the same extent as R7W-Myb^397–415
same,Accumulation of phosphorylated histone H2AX (γH2AX),[2],most pronounced response
RRRRRRRW-GG-NHTGNSIRHRFRVYLSKRL [R7W-Myb^397–415],G4-stabilizing properties compared with Myb^397–415,[3],no significant differences
same,HER2 expression level,[4],transiently modulated
same,BCL-2 expression level,[5],transiently modulated
same,IC50,[1]; read-out: IC50 (concentration of drug capable of killing 50% of cells),~5 µM
CGGGCGGGCGCTAGGGAGGGT (structured_DNA) [c-KIT2],Kd,[6],130 ± 15 nM
same,Kd,[7],187 ± 28 nM
same,Kd,[8],200 ± 12 nM
same,Kd,[9],137 ± 24 nM
same,Kd,[10],~170 nM

# Reference: publication PMC11229374, “Unlocking the potential of protein-derived peptides to target G-quadruplex DNA: from recognition to anticancer activity” (Nucleic Acids Research, 2024)
